{"source": "patent US9481648B2", "about": "“Kinase inhibitors” (Respivert Limited, priority 2013, dated 2016)"}
{"target": "GSK 3α (Homo sapiens (Human), UniProt P49840)", "sequence (P49840 whole entry)": "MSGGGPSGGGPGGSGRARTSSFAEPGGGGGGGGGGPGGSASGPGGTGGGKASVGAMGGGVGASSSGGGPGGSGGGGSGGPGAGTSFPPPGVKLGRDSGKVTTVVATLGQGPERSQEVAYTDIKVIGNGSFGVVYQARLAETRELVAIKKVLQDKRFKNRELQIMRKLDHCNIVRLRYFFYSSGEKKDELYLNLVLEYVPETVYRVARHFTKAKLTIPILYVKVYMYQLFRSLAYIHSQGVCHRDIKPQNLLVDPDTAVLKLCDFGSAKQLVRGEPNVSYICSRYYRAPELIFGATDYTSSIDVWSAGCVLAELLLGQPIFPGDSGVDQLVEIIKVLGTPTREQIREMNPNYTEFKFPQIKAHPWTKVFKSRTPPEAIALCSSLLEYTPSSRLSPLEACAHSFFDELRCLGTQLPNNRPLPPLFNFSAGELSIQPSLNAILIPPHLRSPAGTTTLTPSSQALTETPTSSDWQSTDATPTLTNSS", "assay": "GSK 3α enzyme inhibition (FRET, Z-LYTE; Method 2)", "assay_type": "biochemical", "conditions": "read-out: IC50 Values for Enzyme Inhibition GSK3α", "procedure": "The enzyme inhibitory activities of compounds disclosed herein are determined by FRET using synthetic peptides labelled with both donor and acceptor fluorophores (Z-LYTE, Invitrogen Ltd., Paisley, UK).\nThe inhibitory activities of compounds of the invention against the GSK 3α enzyme isoform (Invitrogen), are evaluated by determining the level of activation I phosphorylation of the target peptide. The GSK3-α protein (500 ng/mL, 2.5 μL) is mixed with the test compound (2.5 μL at either 4 μg/mL, 0.4 μg/mL, 0.04 μg/mL, or 0.004 μg/mL) for 2 hr at RT. The FRET peptide (8 μM, 2.5 μL), which is a phosphorylation target for GSK3α, and ATP (40 μM, 2.5 μL) are then added to the enzyme\\compound mixture and the resulting mixture incubated for 1 hr. Development reagent (protease, 5 μL) is added for 1 hr prior to detection in a fluorescence microplate reader (Varioskan® Flash, ThermoFisher Scientific).\nIn all cases, the site-specific protease cleaves non-phosphorylated peptide only and eliminates the FRET signal. Phosphorylation levels of each reaction are calculated using the ratio of coumarin emission (donor) over fluorescein emission (acceptor), for which high ratios indicate high phosphorylation and low ratios indicate low phosphorylation levels.\nThis method follows the same steps as Method 1 above, but utilises a shorter period of mixing of the test compound (105 minutes instead of 2 hours) with the GSK3-α protein. In addition, the concentrations of test compound employed are either 10 μg/mL, 1 μg/mL, 0.1 μg/mL, or 0.01 μg/mL", "units": {"IC50": "nM"}}
{"smiles": "COCCOCCOCCOc1cc(Nc2nccc(Oc3ccc(NC(=O)Nc4cc(C(C)(C)C)cc(C(=O)NC(C)C)c4OC)c4ccccc34)n2)cc(OC)c1", "note": "[Example 42, 5-(tert-Butyl)-N-isopropyl-2-methoxy-3-(3-(4-((2-((3-methoxy-5-(2-(2-(2-methoxyethoxy)-ethoxy)ethoxy)phenyl)amino)pyrimidin-4-yl)oxy)naphthalen-1-yl)ureido)benzamide]", "IC50": 705}
{"smiles": "COCCNC(=O)c1cc(C(C)(C)C)cc(NC(=O)Nc2ccc(Oc3ccnc(Nc4cc(OC)cc(OCCOCCOCCOC)c4)n3)c3ccccc23)c1OC", "note": "[Example 43, 5-(tert-Butyl)-2-methoxy-3-(3-(4-((2-((3-methoxy-5-(2-(2-(2-methoxyethoxy)ethoxy)-ethoxy)phenyl)amino)pyrimidin-4-yl)oxy)naphthalen-1-yl)ureido)-N-(2-methoxyethyl)-benzamide]", "IC50": 520}
{"smiles": "COCCOCCOCCOc1cc(Nc2nccc(Oc3ccc(NC(=O)Nc4cc(C(C)(C)C)cc(C(=O)NCC(=O)O)c4OC)c4ccccc34)n2)cc(OC)c1", "note": "[Example 44, 2-(5-(tert-Butyl)-2-methoxy-3-(3-(4-((2-((3-methoxy-5-(2-(2-(2-methoxyethoxy)ethoxy)-ethoxy)phenyl)amino)pyrimidin-4-yl)oxy)naphthalen-1-yl)ureido)benzamido)acetic acid]", "IC50": 80}
{"smiles": "COc1cc(Nc2nccc(Oc3ccc(NC(=O)Nc4cc(C(C)(C)C)cc(NS(C)(=O)=O)c4OC)c4ccccc34)n2)cc(C(=O)C2CC2)c1", "note": "[Example 50, N-(5-(tert-Butyl)-3-(3-(4-((2-((3-(cyclopropanecarbonyl)-5-methoxyphenyl)amino)-pyrimidin-4-yl)oxy)naphthalen-1-yl)ureido)-2-methoxyphenyl)methanesulfonamide]", "IC50": 13800}
{"smiles": "C#Cc1cc(Nc2nccc(Oc3ccc(NC(=O)Nc4cc(C(C)(C)C)cc(C(=O)NC)c4OC)c4ccccc34)n2)cc(C(=O)N[C@@H](C)CN2CCOCC2)c1", "note": "[Example 60, (S)-5-(tert-Butyl)-3-(3-(4-((2-((3-ethynyl-5-((1-morpholinopropan-2-yl)carbamoyl)phenyl)amino)pyrimidin-4-yl)oxy)naphthalen-1-yl)ureido)-2-methoxy-N-methylbenzamide]", "IC50": 539}
{"smiles": "C#Cc1cc(Nc2nccc(Oc3ccc(NC(=O)Nc4cc(C(C)(C)C)cc(C(=O)NC)c4OC)c4ccccc34)n2)cc(C(=O)N[C@H](C)CN2CCOCC2)c1", "note": "[Example 61, (R)-5-(tert-Butyl)-3-(3-(4-((2-((3-ethynyl-5-((1-morpholinopropan-2-yl)carbamoyl)phenyl)amino)pyrimidin-4-yl)oxy)naphthalen-1-yl)ureido)-2-methoxy-N-methylbenzamide]", "IC50": 372}
{"smiles": "COCCOCCOCCOc1cc(Nc2nccc(Oc3ccc(NC(=O)Nc4cc(C(C)(C)C)cc5[nH]c(=O)oc45)c4ccccc34)n2)cc(OC)c1", "note": "[Example 63, 1-(5-(tert-Butyl)-2-oxo-2,3-dihydrobenzo[d]oxazol-7-yl)-3-(4-((2-((3-methoxy-5-(2-(2-(2-methoxyethoxy)ethoxy)ethoxy)phenyl)amino)pyrimidin-4-yl)oxy)naphthalen-1-yl)urea]", "IC50": 829}
{"smiles": "COCCOCCOCCOc1cc(Nc2nccc(Oc3ccc(NC(=O)Nc4cc(C(C)(C)C)cc5nc(C)oc45)c4ccccc34)n2)cc(OC)c1", "note": "[Example 64, 1-(5-(tert-Butyl)-2-methylbenzo[d]oxazol-7-yl)-3-(4-((2-((3-methoxy-5-(2-(2-(2-methoxy-ethoxy)ethoxy)ethoxy)phenyl)amino)pyrimidin-4-yl)oxy)naphthalen-1-yl)urea]", "IC50": 1460}
{"smiles": "COCCOCCOCCOc1cc(Nc2nccc(Oc3ccc(NC(=O)Nc4cc(C(C)(C)C)cc(NS(=O)(=O)C(F)(F)F)c4OC)c4ccccc34)n2)cc(OC)c1", "note": "[Example 71]", "IC50": 2620}
{"smiles": "COCCOCCOCCOc1cc(Nc2nccc(Oc3ccc(NC(=O)Nc4cc(C(C)(C)C)cc(NS(=O)(=O)C5CCCCC5)c4OC)c4ccccc34)n2)cc(OC)c1", "note": "[Example 72, N-(5-(tert-Butyl)-2-methoxy-3-(3-(4-((2-((3-methoxy-5-(2-(2-(2-methoxyethoxy)ethoxy)-ethoxy)phenyl)amino)pyrimidin-4-yl)oxy)naphthalen-1-yl)ureido)phenyl)cyclohexane-sulfonamide]", "IC50": 11300}
{"smiles": "COCCOCCOCCOc1cc(Nc2nccc(Oc3ccc(NC(=O)Nc4cc(C(C)(C)C)cc(NS(=O)(=O)N5CCCCC5)c4OC)c4ccccc34)n2)cc(OC)c1", "note": "[Example 73, N-(5-(tert-Butyl)-2-methoxy-3-(3-(4-((2-((3-methoxy-5-(2-(2-(2-methoxyethoxy)ethoxy)-ethoxy)phenyl)amino)pyrimidin-4-yl)oxy)naphthalen-1-yl)ureido)phenyl)piperidine-1-sulfonamide]", "IC50": 11300}
{"smiles": "COCCOCCOCCOc1cc(Nc2nccc(Oc3ccc(NC(=O)Nc4cc(C(C)(C)C)cc(NS(=O)(=O)N(C)C)c4OC)c4ccccc34)n2)cc(OC)c1", "note": "[Example 74, N-(5-(tert-Butyl)-2-methoxy-3-(3-(4-((2-((3-methoxy-5-(2-(2-(2-methoxyethoxy)ethoxy)-ethoxy)phenyl)amino)pyrimidin-4-yl)oxy)naphthalen-1-yl)ureido)phenyl)dimethylamino-sulfonamide]", "IC50": 9680}
{"smiles": "COc1c(NC(=O)Nc2ccc(Oc3ccnc(Nc4ccccc4)n3)c3ccccc23)cc(C(C)(C)C)cc1C(=O)NC1COC1", "note": "[Example 78, 5-(tert-Butyl)-2-methoxy-N-(oxetan-3-yl)-3-(3-(4-((2-(phenylamino)pyrimidin-4-yl)oxy)-naphthalen-1-yl)ureido)benzamide]", "IC50": 896}
{"smiles": "COc1c(NC(=O)Nc2ccc(Oc3ccnc(Nc4ccccc4)c3)c(F)c2F)cc(C(C)(C)C)cc1C(=O)NC1COC1", "note": "[Example 82, 5-(tert-Butyl)-3-(3-(2,3-difluoro-4-((2-(phenylamino)pyridin-4-yl)oxy)phenyl)ureido)-2-methoxy-N-(oxetan-3-yl)benzamide]", "IC50": 182}
{"smiles": "C#Cc1cc(Nc2cc(Oc3ccc(NC(=O)Nc4cc(C(C)(C)C)cc(NS(C)(=O)=O)c4OC)c4ccccc34)ccn2)cc(C(=O)NCCN2CCN(C)CC2)c1", "note": "[Example 85(c), 3-[[4-[[4-[[5-tert-Butyl-3-(methanesulfonamido)-2-methoxyphenyl]-carbamoylamino]-1-nahthyl]oxy]-2-pyridyl]amino]-5-ethynyl-N-[2-(4-methylpiperazin-1-yl)ethyl]benzamide]", "IC50": 3560}
{"smiles": "COc1cc(Nc2nccc(Oc3ccc(NC(=O)Nc4cc(C(C)(C)C)cc(NS(C)(=O)=O)c4OC)c4ccccc34)n2)cc(C(=O)NCCN2CCN(C)CC2)c1", "note": "[Example 85(e), 3-[[4-[[4-[[5-tert-Butyl-3-(methanesulfonamido)-2-methoxyphenyl]-carbamoylamino]-1-naphthyl]oxy]pyrimidin-2-yl]amino]-5-methoxy-N-[2-(4-methyypiperazin-1-yl)ethyl]benzamide]", "IC50": 300}
{"smiles": "COc1cc(Nc2cc(Oc3ccc(NC(=O)Nc4cc(C(C)(C)C)cc(NS(C)(=O)=O)c4OC)c4ccccc34)ccn2)cc(C(=O)NCCN2CCCN(C)CC2)c1", "note": "[Example 85(p), 3-[[4-[[4-[[5-tert-Butyl-3-(methanesulfonamido)-2-methoxyphenyl]-carbamoylamino]-1-naphthyl]oxy]-2-pyridyl]amino]-5-methoxy-N-[2-(4-methyl-1,4-diazean-1-yl)ethyl]benzamide]", "IC50": 1160}
{"smiles": "COCCOCCOCC[S+]([O-])c1cc(Nc2cc(Oc3ccc(NC(=O)Nc4cc(C(C)(C)C)cc(NS(C)(=O)=O)c4OC)c4ccccc34)ccn2)cc(OC)c1", "note": "(stereo not drawn) [Example 85(x), 1-[5-tert-Butyl-3-(methanesulfonamido)-2-methoxyphenyl]-3-[4-[2-[3-methoxy-5-[2-[2-(2-methoxyethoxy)ethoxy]ethylsufinyl]anilino]pyridin-4-yl]oxy-1-naphthyl]urea]", "IC50": 878}
